Literature values, collected in US7767208B2, “Noninvasive vascular therapy” (Light Sciences Oncology, Inc., priority 1999, dated 2010).

Conditions: systemically administered sensitizer in clinical use; for sensitize the skin for: duration of skin sensitization

Compound | sensitize the skin for | photosensitivity lasting (skin photosensitivity)
CCOC(=O)C1=Cc2c3nc(cc4nc(cc5[n-]c(cc6[n-]c2c(C)c6CC)c(C)c5CC)C(C)=C4CC)[C@@H](C)[C@]13CC.[Cl-].[Cl-].[Sn] (racemic) [Purlytin] | several weeks | 
sodium porfimer [Photophrin] |  | up to 6 weeks
Oc1cccc(-c2c3nc(c(-c4cccc(O)c4)c4ccc([nH]4)c(-c4cccc(O)c4)c4nc(c(-c5cccc(O)c5)c5ccc2[nH]5)CC4)C=C3)c1 [Foscan] | several weeks | 
